These results are taken from patent US12180198B2, “Ribocil C antibiotics effective for Gram-negative pathogens” (THE BOARD OF TRUSTEES OF THE UNIVERSITY OF ILLINOIS, priority 2018, dated 2024).

For one test, the system named is A. baumannii KB343. Description: MIC, micro-dilution broth method. Type of test: cell-based. The settings on record: Acinetobacter baumannii. As for the experimental part: (§1) Compounds were evaluated against a panel of Gram-positive and Gram-negative organisms. MIC values were determined using the micro-dilution broth method as outlined by the Clinical and Laboratory Standards Institute (clsi.org/) and are listed in […]. All experiments were performed in biological triplicate.
(§2) Antimicrobial susceptibility tests. Susceptibility testing was performed in biological triplicate, using the micro-dilution broth method as outlined by the Clinical and Laboratory Standards Institute. Bacteria were cultured with cation-adjusted Muller-Hinton broth (Sigma-Aldrich, Cat #90922) in round-bottom 96-well plates (Corning, Cat #3788). Human serum (pooled gender, 0.2 μm filtered) was purchased from BioIVT (Hicksville, NY).

The next test deals with E. cloacae ATCC 29893. As to the kind of experiment: MIC, micro-dilution broth method. The class given is cell-based. The settings on record: Enterobacter cloacae, ATCC29893. As to the method: as §1, §2
The test system of another test is E. cloacae BAA-2341. As to the kind of experiment: MIC, micro-dilution broth method. To be noted: Enterobacter cloacae, BAA2341. The class given is cell-based. As for the experimental part: as §1, §2
A further test has as its system E. cloacae BAA-2468. As to the kind of experiment: MIC, micro-dilution broth method. To be noted: Enterobacter cloacae, BAA2468. The class given is cell-based. As to the method:
as §1, §2

In the next test the test system is E. coli BAA-2471. As to the kind of experiment: MIC, micro-dilution broth method. Type of test: cell-based. The settings on record: Escherichia coli, BAA2471. As to the method: as §1, §2
The next test relates to E. coli F20987. Description: MIC, micro-dilution broth method. The class given is cell-based. The settings on record: Escherichia coli. As to the method: as §1, §2
The test system of the next test is E. coli ΔtolC JW5503. Description: MIC, micro-dilution broth method. The class given is cell-based. To be noted: Escherichia coli. As to the method:
as §1, §2

The test system of a further test is K. pneumoniae AR-0347. Description: MIC, micro-dilution broth method. Type of test: cell-based. The settings on record: Klebsiella pneumoniae, AR0347. As to the method:
as §1, §2

The subject of the next test is K. pneumoniae BAA-2470. Description: MIC, micro-dilution broth method. The settings on record: Klebsiella pneumoniae, BAA2470. Type of test: cell-based. As to the method:
as §1, §2

The next test has as its system K. pneumoniae BAA-2472. Description: MIC, micro-dilution broth method. To be noted: Klebsiella pneumoniae, BAA2472. Type of test: cell-based. As for the experimental part:
as §1, §2

A further test deals with K. pneumoniae BAA-2473. As to the kind of experiment: MIC, micro-dilution broth method. The class given is cell-based. To be noted: Klebsiella pneumoniae, BAA2473. As for the experimental part:
as §1, §2

Another test deals with K. pneumoniae M14723. As to the kind of experiment: MIC, micro-dilution broth method. Type of test: cell-based. To be noted: Klebsiella pneumoniae. As to the method: as §1, §2
A further test deals with K. pneumoniae M67297. Description: MIC, micro-dilution broth method. The class given is cell-based. The settings on record: Klebsiella pneumoniae. As for the experimental part:
as §1, §2

The test system of the next test is E. coli BAA-2469. Description: Bioactivity against exemplary strains of bacteria (Table 5A). The class given is cell-based. Details: unit not given here. To be noted: Strain 2: E. coli BAA-2469.
In a further test the test system is A. baumannii BAA-2093. The description is as above. The settings on record: Strain 3: A. baumannii BAA-2093. Type of test: cell-based.
For another test, the system named is K. pneumoniae BAA-2146. Described as above. To be noted: Strain 4: K. pneumoniae BAA-2146. Type of test: cell-based.
Test [1] relates to E. coli strains with intact outer membranes. Description: MIC, micro-dilution broth method (text summary). The class given is cell-based. The settings on record: Escherichia coli. As for the experimental part:
FIG. 2. Antimicrobial activity of Debio-1452 and derivatives. MIC values were determined using the micro-dilution broth method as outlined by the Clinical and Laboratory Standards Institute (clsi.org/). All experiments were performed in biological triplicate.
as §2

The target of another test is E. coli FabI (Escherichia coli, UniProt P0AEK4). As to the kind of experiment: In vitro FabI inhibition assay. Type of test: biochemical. The settings on record: 20 nM enzyme. As for the experimental part: Expression and purification of E. coli FabI. E. coli BL21 (DE3) pLysS (Novagen) were transformed with pET15-ecFabI. Overnight culture (10 mL) in LB supplemented with 50 μg/mL ampicillin from single colony was diluted into 1 L LB+50 μg/mL ampicillin. Cells were grown at 37° C., 250 rpm until OD600 reached 0.8. Culture was cooled to 18° C. and induced with 0.5 mM IPTG for 18 h at 18° C. Cells were harvested by centrifugation (5,000×g, 10 min, 4° C.). Cell pellets were flash frozen and store at −20° C. pending purification. Frozen cell pellets were thawed on ice and resuspended (5 mL per gram wet pellet, typically 20-30 mL) with 0.5% CHAPS, 1 mM PMSF, 1 μg/mL leupeptin, 1 μg/mL pepstatin A, and 2 μg/mL aprotinin in binding buffer [20 mM Tris (pH 7.9), 500 mM NaCl, 5 mM imidazole]. Cells were lysed by sonication on ice (30%, 10 s pulse, 20 s rest, 5 min total). Lysate was clarified by centrifugation (35,000×g, 1 h, 4° C.) and filtration through 0.2 μm syringe filter. Lysate was incubated with 5 mL Co-NTA agarose (HisPur cobalt resin, Thermo-Fisher Scientific Cat #89965, pre-equilibrated with binding buffer) for 30 min at 4° C. with gentle rocking. Agarose-containing lysate was transferred to column and flow through discarded. Column was washed with 2 column volumes of binding buffer followed by 10 column volumes of wash buffer [20 mM Tris (pH 7.9), 500 mM NaCl, 60 mM imidazole]. Protein was eluted with 15 mL elution buffer [20 mM Tris (pH 7.9), 500 mM NaCl, 300 mM imidazole]. […] Protein concentration was determined by BCA assay (ThermoFisher Cat #23227).
Chain of E. coli FabI (P0AEK4 whole entry): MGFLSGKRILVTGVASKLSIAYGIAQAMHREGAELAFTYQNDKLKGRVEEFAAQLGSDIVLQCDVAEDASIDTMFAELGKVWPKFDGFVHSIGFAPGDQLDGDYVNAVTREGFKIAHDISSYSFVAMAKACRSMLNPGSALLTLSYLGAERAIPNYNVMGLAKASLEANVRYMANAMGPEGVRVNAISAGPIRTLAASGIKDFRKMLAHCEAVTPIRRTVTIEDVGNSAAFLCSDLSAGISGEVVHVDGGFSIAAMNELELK
In vitro FabI inhibition assay. […] Plate was placed in plate-reader (SpectraMax 190, Molecular Devices) under temperature control (25° C.), and temperature was allowed to equilibrate. […] After shaking for 5 s, reaction progress was monitored by absorbance at 340 nm every 15 s for 90 min. Linear portion of reaction progress curve was fit using plate-reader software (SoftMax Pro 7.0). Percent activity was calculated relative to DMSO-only and no-enzyme controls in each plate. […]

SMILES strings stand for the structures. Values after ≈ are worked out from the molar mass of the structure shown. Structures can show the parent of a compound that is named as a salt. Where two headings read alike, the source gives them in different places.

In the case of `Cc1c(CN(C)C(=O)/C=C/c2cnc3c(c2)CCC(=O)N3)oc2ccccc12` [Debio-1452, (E)-N-methyl-N-((3-methylbenzofuran-2-yl)methyl)-3-(7-oxo-5,6,7,8-tetrahydro-1,8-naphthyridin-3-yl)acrylamide, reference compound], the MIC in the test on A. baumannii KB343 (A. baumannii KB343, read-out: MIC) is greater than 32 µg/mL; in the test with E. cloacae ATCC 29893 (E. cloacae ATCC 29893, read-out: MIC), greater than 32 µg/mL; in the test with E. cloacae BAA-2341 (E. cloacae BAA-2341, read-out: MIC), greater than 32 µg/mL; in the test on E. cloacae BAA-2468 (E. cloacae BAA-2468, read-out: MIC) it was greater than 32 µg/mL; with E. coli BAA-2471 (E. coli BAA-2471, read-out: MIC), 8 µg/mL (≈ 21.3 µM); in the test with E. coli F20987 (E. coli F20987, read-out: MIC), greater than 32 µg/mL. Further, the minimum inhibitory concentration (MIC) in the test with E. coli ΔtolC JW5503 is 0.031 µg/mL (≈ 0.0826 µM); in the test with K. pneumoniae AR-0347 (K. pneumoniae AR-0347, read-out: MIC) it was greater than 32 µg/mL; in the test with K. pneumoniae BAA-2470 (K. pneumoniae BAA-2470, read-out: MIC), 8 µg/mL (≈ 21.3 µM); in the test with K. pneumoniae BAA-2472 (K. pneumoniae BAA-2472, read-out: MIC) it was greater than 32 µg/mL; in the test with K. pneumoniae BAA-2473 (K. pneumoniae BAA-2473, read-out: MIC), greater than 32 µg/mL; in the test with K. pneumoniae M14723 (K. pneumoniae M14723, read-out: MIC) it was greater than 32 µg/mL. Further, the MIC was greater than 32 µg/mL in the test on K. pneumoniae M67297 (K. pneumoniae M67297, read-out: MIC) and greater than 32 µg/mL in [1] (E. coli strains with intact outer membranes, read-out: MIC). Further, the Bioactivity in the test on E. coli BAA-2469 is on record as greater than 32; in the test on A. baumannii BAA-2093, 16; in the test with K. pneumoniae BAA-2146 it was greater than 32. On E. coli FabI, the “inhibition of E. coli FabI in vitro (in words)” value was “potent FabI inhibitors”.
Turning to `Cc1c(CN(C)C(=O)/C=C/c2cnc3c(c2)CC(N)C(=O)N3)oc2ccccc12` (stereo not drawn) [Debio-1452-NH3, (E)-3-(6-amino-7-oxo-5,6,7,8-tetrahydro-1,8-naphthyridin-3-yl)-N-methyl-N-((3-methylbenzofuran-2-yl)methyl)acrylamide hydrochloride], the minimum inhibitory concentration (MIC) is 64 µg/mL against A. baumannii KB343 (KB343); 8 µg/mL with E. cloacae ATCC 29893; 8 µg/mL in the test on E. cloacae BAA-2341; 8 µg/mL in the test with E. cloacae BAA-2468; 4 µg/mL in the test with E. coli BAA-2471; 4 µg/mL against E. coli F20987 (F20987). For the same compound, the MIC in the test with E. coli ΔtolC JW5503 was 0.062 µg/mL; in the test on K. pneumoniae AR-0347 it was 16 µg/mL; against K. pneumoniae BAA-2470, 4 µg/mL; in the test on K. pneumoniae BAA-2472 it was 16 µg/mL; against K. pneumoniae BAA-2473 it was 16 µg/mL; against K. pneumoniae M14723 (M14723), 16 µg/mL. Further, the MIC in the test on K. pneumoniae M67297 (M67297) worked out at 32 µg/mL; in test [1] it was 4 µg/mL. Besides, the values for the Bioactivity in the test with E. coli BAA-2469, in the test with A. baumannii BAA-2093 and in the test with K. pneumoniae BAA-2146 were 4, 4 and 32, respectively. The “inhibition of E. coli FabI in vitro (in words)” value at E. coli FabI is recorded as “potent FabI inhibitors”.
